According to patent US9782387B2, “Compositions and methods for treating hematological malignancies” (Tel HaShomer Medical Research Infrastructure and Services …, priority 2013, dated 2017):

Assays:
RPMIS cells = experiment: Combination XTT assay, Chou-Talalay, RPMIS; format: cell-based, human; design: key: CI <1 synergism, =1 additive, >1 antagonism (Chou-Talalay); details: 48 h
Description: (§1) Combinations of novel and/or conventional anti-MM agents may achieve higher clinical response rates than a single agent(s).
(§2) CI value <1, =1, >1 indicates synergism, additive effect, and antagonism, respectively, (n=3 independent experiments). The CI values were calculated by the Chou-Talalay method based on the median-effect equation and the classic isobologram equation [22], using compusyn computer software.

MM.1S cells = experiment: Combination XTT assay, Chou-Talalay, MM.1S; format: cell-based, human; design: key: CI <1 synergism, =1 additive, >1 antagonism (Chou-Talalay); details: 48 h
Description: as §1, §2

[1] = system: peripheral blood mononuclear cells (PBMCs); experiment: Cell viability XTT assay, PBMCs; format: cell-based, human; details: PBMC from the same patients and from healthy donors, 48 h
Description: (§3) MM cell lines were plated at a density of 2×10^4 cells per well in 96-wells and treated with different concentrations of STK405759. For patient samples, bone marrow aspirates from MM patients were collected, mononuclear cells were separated by Ficoll density gradient centrifugation and myeloma cells selected using CD138 microbeads (Miltenyi Biotec). Purified CD138^+ cells from patients were plated at a density of 2×10^4 cells per well and treated for 48 h with different concentrations of STK405759. Peripheral blood samples were processed by Ficoll density gradient centrifugation to isolate peripheral blood mononuclear cells (PBMCs). PBMCs were plated at 2×10^4 cells per well and exposed to different concentrations of STK405759 for 48 h. Cell viability was measured using XTT cell proliferation Kit (Biological Industries) according to manufacture instructions.

RPMIS MM cells = experiment: Xenograft murine model; format: in vivo, SCID mice; details: 0.5 mg/kg i.p.; not reached after follow-up of 60 days; control 28 days
Description: RPMIS cells (7×10^6 mouse in 100 μl of PBS) were injected subcutaneously in SCID mice. Mice (n=10 per group) received STK405759 (0.5 mg/kg in 0.1 ml PBS) or control vehicle (0.1 ml PBS), by intraperitoneal (i.p.) administration once a day for 5 days. FIG. 6A—Tumor diameters were measured every 2-3 days with caliper, and tumor volumes were calculated using the formula of the volume of an ellipse: ½ (length×width^2). […] FIG. 6B—Kaplan-Meier analysis of overall survival confirmed that STK405759 increased survival compared with control mice. […] FIG. 6D—Induction of apoptosis and cell death in tumors excised from vehicle or STK405759 (0.5 mg/kg) treated animals are shown by TUNEL assay. Photomicrographs show apoptotic cells (brown) using light microscopy (×20 and ×40 magnification).
Male SCID mice (6-8 week old) were maintained in accordance with Institutional Animal Care Use Committee guidelines. […]
Mice were monitored every 2-3 d for changes in body weight and tumor burden. Tumor volumes were measured by a caliper every alternate day and calculated using the following formula: length×width^2×0.5. […] Following sacrifice, tumors were immediately collected and evaluated for induction of apoptosis and cell death by TdT-mediated dUTP nick end labeling (TUNEL) assay.

[2] = system: HS-5 bone marrow stromal cells; experiment: CFSE/PI FACS viability in co-culture, stromal cells; format: cell-based, human; details: 48 h
Description: FIGS. 2A-D are graphs showing that STK405759 overcomes the growth stimulatory effect of BMSCs. IL-6 or IGF-1 on MM cell growth. FIG. 2A-B—RPMIS cells were stained with CFSE, co-cultured with HS-5 and exposed to STK405759 (70 nM) for 48 h. The cells were contrastained with PI to distinguish live from nonviable cells using FACS analysis. The values of the fraction of nonviable (CFSE^−PI^+) HS-5 cells within the entire population of HS-5 cells (CFSE^−) cultured alone or with RPMIS cells, and the fraction of (CFSE^+PI^+) RPMIS cells within the entire population of RPMIS cells (CFSE) cultured alone or with HS-5 cells are presented as a function of the STK405759 concentrations. FIGS. 2C-D—RPMIS cells were cultured for 48 hours at the indicated concentrations of STK405759 in the presence or absence of IL-6 (5 or 10 ng/ml) or IGF-1 (10 or 30 ng/ml). Data presented are from three independent experiments and presented as means±SE.
Since BMSC trigger and maintain MM cell homing, proliferation, and drug resistance, the present inventors have assessed whether MM cell sensitivity to STK405759 is attenuated by co-culture with bone marrow stromal cells. In order to quantify viability of MM cells cultured alone or co-cultured with HS-5 bone marrow stromal cells. MM cells were stained with CFSE. […]

[3] = system: human multiple myeloma (MM) cell lines; experiment: Cell viability XTT assay, MM cell lines; format: cell-based; details: each MM cell line
Description: The following panel of human multiple myeloma (MM) cell lines was used: RPMI-S (ATCC® CCL-155), RPMI-LR5, RPMI-MR20, MM.1S (ATCC® CRL-2974). OPM1, OPM-2, U266 ATCC® TIB-196 and CAG. The human immortalized bone marrow stromal cell (BMSC) line HS-5 was obtained from ATCC® CRL-11882. MM cell lines were grown in RPMI and HS-5 in DMEM, supplemented with 10% fetal calf serum, 2 mM L-glutamine, 100 units/mL penicillin and 100 μg/mL streptomycin (Biological Industries, Beit Haemek, Israel), and incubated in a humidified atmosphere of 5% CO2 and 95% air at 37° C.
as §3, with “PBMCs were plated at 2×10^4 cells per well and exposed to different concentrations of STK405759 for 48 h.” left out, “instructions. […]” for “instructions.”

[4] = Xenograft murine model, body weight and toxicity; format: in vivo; details: 0.5 mg/kg i.p., during treatment
Description: Mice were monitored every 2-3 d for changes in body weight and tumor burden. Tumor volumes were measured by a caliper every alternate day and calculated using the following formula: length×width^2×0.5. Mice were sacrificed in accordance with institutional guidelines when tumors reached 1.5 cm^3 or if the mice appeared moribund, to prevent unnecessary morbidity to the mice. Following sacrifice, tumors were immediately collected and evaluated for induction of apoptosis and cell death by TdT-mediated dUTP nick end labeling (TUNEL) assay.

[5] = system: affinity-purified CD138+ cells from bone marrow samples of MM patients; experiment: Cell viability XTT assay, primary patient MM cells; format: cell-based, human; details: 2 MM patients, 48 h
Description: as §3

C[C@@H]1C[C@H]2[C@@H]3CCC4=CC(=O)C=C[C@]4(C)[C@@]3(F)[C@@H](O)C[C@]2(C)[C@@]1(O)C(=O)CO [DEX, dexamethasone]
Combination Index (RPMIS cells; STK405759 45 nM + DEX 1 nM): 0.76 ± 0.06 | Combination Index (RPMIS cells; STK405759 45 nM + DEX 5 nM): 0.84 ± 0.03 | Combination Index (MM.1S cells; STK405759 45 nM + DEX 1 nM): 0.76 ± 0.15 | Combination Index (MM.1S cells; STK405759 45 nM + DEX 5 nM): 0.63 ± 0.09

Nc1cccc2c1CN(C1CCC(=O)NC1=O)C2=O (stereo not shown) [LEN, lenalidomide]
Combination Index (RPMIS cells; STK405759 45 nM + LEN 5 μM): 0.77 ± 0.09 | Combination Index (RPMIS cells; STK405759 45 nM + LEN 25 μM): 0.74 ± 0.05 | Combination Index (MM.1S cells; STK405759 45 nM + LEN 5 μM): 0.62 ± 0.09 | Combination Index (MM.1S cells; STK405759 45 nM + LEN 25 μM): 0.58 ± 0.09

COc1cccc2c1C(=O)c1c(O)c3c(c(O)c1C2=O)C[C@@](O)(C(=O)CO)C[C@@H]3O[C@H]1C[C@H](N)[C@H](O)[C@H](C)O1 [DOXO, doxorubicin]
Combination Index (RPMIS cells; STK405759 45 nM + DOXO 10 nM): 1.44 ± 0.01 | Combination Index (RPMIS cells; STK405759 45 nM + DOXO 30 nM): 1.63 ± 0.10 | Combination Index (MM.1S cells; STK405759 45 nM + DOXO 10 nM): 1.30 ± 0.06 | Combination Index (MM.1S cells; STK405759 45 nM + DOXO 30 nM): 1.54 ± 0.08

CCCCCOC(=O)c1[nH]c2c(c1C)C(=O)CC(c1ccco1)C2 (stereo not shown) [STK405759]
cytotoxic effect on PBMC [1]: non responsive to the cytotoxic effect | median overall survival (RPMIS MM cells): > 60 days | viability of HS-5 stromal cells [2]: unaffected | IC50 [3]: < 44 nM | changes in weight or other signs of potential toxicity [4]: No significant changes | cytotoxic response of primary MM cells [5]: dose-dependent cytotoxic response

CC(C)C[C@H](NC(=O)[C@H](Cc1ccccc1)NC(=O)c1cnccn1)B(O)O [BTZ, bortezomib]
Combination Index (RPMIS cells; STK405759 45 nM + BTZ 1 nM): 0.88 ± 0.02 | Combination Index (RPMIS cells; STK405759 45 nM + BTZ 5 nM): 0.78 ± 0.08 | Combination Index (MM.1S cells; STK405759 45 nM + BTZ 1 nM): 0.62 ± 0.14 | Combination Index (MM.1S cells; STK405759 45 nM + BTZ 5 nM): 0.58 ± 0.02
